In ChEMBL document CHEMBL1136903, “Spiroimidazolidinone NPC1L1 inhibitors. 1: Discovery by 3D-similarity-based virtual screening” (Bioorg Med Chem Lett, 2009):

Assays:
[1] = biological target: NPC1-like intracellular cholesterol transporter 1 (Rattus norvegicus, UniProt Q6T3U3); assay: Displacement of [35S](2S,3S,4S,5R,6S)-6-(4-((2S,3R)-3-((S)-3-(4-fluorophenyl)-3-hydroxypropyl)-1-(4-(3-(methylsulfonamido)prop-1-ynyl)phenyl)-4-oxoazetidin-2-yl)phenoxy)-3,4,5-trihydroxytetrahydro-2H-pyran-2-carboxylic acid from NPC1L1 in rat enterocyte brush border membrane
Chain of NPC1-like intracellular cholesterol transporter 1 (Q6T3U3 21-1331 limits assumed): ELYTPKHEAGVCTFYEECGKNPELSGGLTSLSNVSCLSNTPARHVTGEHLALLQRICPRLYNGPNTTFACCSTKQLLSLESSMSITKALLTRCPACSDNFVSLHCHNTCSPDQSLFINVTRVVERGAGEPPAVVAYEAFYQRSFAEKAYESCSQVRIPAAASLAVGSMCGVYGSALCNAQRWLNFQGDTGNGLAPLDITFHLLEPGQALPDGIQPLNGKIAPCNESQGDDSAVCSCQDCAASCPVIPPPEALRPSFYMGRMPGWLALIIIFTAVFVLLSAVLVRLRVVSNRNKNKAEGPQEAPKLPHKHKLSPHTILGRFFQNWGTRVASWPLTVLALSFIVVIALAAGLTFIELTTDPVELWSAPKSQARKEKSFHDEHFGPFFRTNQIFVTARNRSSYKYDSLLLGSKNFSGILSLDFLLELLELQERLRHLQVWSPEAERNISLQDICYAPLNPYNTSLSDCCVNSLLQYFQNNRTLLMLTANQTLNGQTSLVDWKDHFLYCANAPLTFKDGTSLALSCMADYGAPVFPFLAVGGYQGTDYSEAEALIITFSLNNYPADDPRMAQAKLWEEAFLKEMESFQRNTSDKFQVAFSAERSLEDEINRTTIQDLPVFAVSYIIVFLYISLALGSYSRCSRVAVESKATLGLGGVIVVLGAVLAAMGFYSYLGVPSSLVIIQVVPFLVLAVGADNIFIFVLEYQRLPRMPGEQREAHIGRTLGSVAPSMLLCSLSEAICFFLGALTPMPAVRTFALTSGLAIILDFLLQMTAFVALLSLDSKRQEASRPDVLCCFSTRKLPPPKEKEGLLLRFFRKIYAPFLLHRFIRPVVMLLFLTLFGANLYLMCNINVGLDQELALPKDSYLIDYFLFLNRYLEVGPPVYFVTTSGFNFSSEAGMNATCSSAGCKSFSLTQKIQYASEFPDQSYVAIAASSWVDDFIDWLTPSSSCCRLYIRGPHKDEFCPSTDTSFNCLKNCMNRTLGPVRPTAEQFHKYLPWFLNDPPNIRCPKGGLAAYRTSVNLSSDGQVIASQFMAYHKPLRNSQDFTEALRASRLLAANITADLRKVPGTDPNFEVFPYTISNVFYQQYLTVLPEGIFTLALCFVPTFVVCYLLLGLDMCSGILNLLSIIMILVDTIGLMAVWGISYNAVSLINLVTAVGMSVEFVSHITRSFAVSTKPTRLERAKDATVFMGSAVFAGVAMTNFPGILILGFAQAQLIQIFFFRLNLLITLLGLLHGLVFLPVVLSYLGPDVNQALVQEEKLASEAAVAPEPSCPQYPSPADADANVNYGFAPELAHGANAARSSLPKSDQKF

[2] = biological target: T1, Niemann-Pick C1-like 1 protein (Canis lupus familiaris, UniProt A0MJA4); assay: Displacement of [35S](2S,3S,4S,5R,6S)-6-(4-((2S,3R)-3-((S)-3-(4-fluorophenyl)-3-hydroxypropyl)-1-(4-(3-(methylsulfonamido)prop-1-ynyl)phenyl)-4-oxoazetidin-2-yl)phenoxy)-3,4,5-trihydroxytetrahydro-2H-pyran-2-carboxylic acid from NPC1L1 in dog enterocyte brush border membrane
T1 sequence (A0MJA4 whole entry): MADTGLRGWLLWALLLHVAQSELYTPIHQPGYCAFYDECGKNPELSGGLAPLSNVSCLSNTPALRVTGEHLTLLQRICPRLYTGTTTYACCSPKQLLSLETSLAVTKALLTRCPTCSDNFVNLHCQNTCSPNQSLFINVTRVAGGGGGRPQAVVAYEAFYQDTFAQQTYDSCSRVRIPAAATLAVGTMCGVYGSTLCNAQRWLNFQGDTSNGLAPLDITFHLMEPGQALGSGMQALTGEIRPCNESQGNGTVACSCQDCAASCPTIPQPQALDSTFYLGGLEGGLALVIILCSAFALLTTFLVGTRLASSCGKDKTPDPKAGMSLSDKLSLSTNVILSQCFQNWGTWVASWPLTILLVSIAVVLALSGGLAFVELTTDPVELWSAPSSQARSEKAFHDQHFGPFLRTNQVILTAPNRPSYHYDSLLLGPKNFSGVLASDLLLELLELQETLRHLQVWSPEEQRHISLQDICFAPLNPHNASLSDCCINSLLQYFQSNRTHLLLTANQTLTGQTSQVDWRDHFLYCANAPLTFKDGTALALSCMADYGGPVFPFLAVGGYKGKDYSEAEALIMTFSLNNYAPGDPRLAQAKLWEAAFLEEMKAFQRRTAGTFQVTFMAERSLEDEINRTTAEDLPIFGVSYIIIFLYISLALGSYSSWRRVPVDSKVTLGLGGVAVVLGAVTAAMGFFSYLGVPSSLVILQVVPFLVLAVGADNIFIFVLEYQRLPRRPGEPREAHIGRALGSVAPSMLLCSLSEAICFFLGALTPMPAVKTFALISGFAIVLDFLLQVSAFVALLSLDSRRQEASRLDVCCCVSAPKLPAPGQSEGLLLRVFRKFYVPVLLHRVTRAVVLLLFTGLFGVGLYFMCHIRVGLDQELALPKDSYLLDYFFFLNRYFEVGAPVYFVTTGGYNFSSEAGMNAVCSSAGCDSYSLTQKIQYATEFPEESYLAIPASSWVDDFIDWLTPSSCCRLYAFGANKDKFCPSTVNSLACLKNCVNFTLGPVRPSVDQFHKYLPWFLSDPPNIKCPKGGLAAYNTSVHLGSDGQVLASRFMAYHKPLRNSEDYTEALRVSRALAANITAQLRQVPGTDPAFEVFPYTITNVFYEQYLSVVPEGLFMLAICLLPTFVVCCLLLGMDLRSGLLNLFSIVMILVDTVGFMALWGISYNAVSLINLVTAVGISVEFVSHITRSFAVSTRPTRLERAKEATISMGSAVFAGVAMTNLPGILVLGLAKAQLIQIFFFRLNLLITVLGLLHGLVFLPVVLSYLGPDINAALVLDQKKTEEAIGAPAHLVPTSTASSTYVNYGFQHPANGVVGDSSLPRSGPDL

[3] = biological target: T2, Niemann-Pick C1-like 1 protein (Macaca mulatta, UniProt A0MJA5); assay: Displacement of [35S](2S,3S,4S,5R,6S)-6-(4-((2S,3R)-3-((S)-3-(4-fluorophenyl)-3-hydroxypropyl)-1-(4-(3-(methylsulfonamido)prop-1-ynyl)phenyl)-4-oxoazetidin-2-yl)phenoxy)-3,4,5-trihydroxytetrahydro-2H-pyran-2-carboxylic acid from NPC1L1 in rhesus monkey enterocyte brush border membrane
T2 sequence (A0MJA5 whole entry): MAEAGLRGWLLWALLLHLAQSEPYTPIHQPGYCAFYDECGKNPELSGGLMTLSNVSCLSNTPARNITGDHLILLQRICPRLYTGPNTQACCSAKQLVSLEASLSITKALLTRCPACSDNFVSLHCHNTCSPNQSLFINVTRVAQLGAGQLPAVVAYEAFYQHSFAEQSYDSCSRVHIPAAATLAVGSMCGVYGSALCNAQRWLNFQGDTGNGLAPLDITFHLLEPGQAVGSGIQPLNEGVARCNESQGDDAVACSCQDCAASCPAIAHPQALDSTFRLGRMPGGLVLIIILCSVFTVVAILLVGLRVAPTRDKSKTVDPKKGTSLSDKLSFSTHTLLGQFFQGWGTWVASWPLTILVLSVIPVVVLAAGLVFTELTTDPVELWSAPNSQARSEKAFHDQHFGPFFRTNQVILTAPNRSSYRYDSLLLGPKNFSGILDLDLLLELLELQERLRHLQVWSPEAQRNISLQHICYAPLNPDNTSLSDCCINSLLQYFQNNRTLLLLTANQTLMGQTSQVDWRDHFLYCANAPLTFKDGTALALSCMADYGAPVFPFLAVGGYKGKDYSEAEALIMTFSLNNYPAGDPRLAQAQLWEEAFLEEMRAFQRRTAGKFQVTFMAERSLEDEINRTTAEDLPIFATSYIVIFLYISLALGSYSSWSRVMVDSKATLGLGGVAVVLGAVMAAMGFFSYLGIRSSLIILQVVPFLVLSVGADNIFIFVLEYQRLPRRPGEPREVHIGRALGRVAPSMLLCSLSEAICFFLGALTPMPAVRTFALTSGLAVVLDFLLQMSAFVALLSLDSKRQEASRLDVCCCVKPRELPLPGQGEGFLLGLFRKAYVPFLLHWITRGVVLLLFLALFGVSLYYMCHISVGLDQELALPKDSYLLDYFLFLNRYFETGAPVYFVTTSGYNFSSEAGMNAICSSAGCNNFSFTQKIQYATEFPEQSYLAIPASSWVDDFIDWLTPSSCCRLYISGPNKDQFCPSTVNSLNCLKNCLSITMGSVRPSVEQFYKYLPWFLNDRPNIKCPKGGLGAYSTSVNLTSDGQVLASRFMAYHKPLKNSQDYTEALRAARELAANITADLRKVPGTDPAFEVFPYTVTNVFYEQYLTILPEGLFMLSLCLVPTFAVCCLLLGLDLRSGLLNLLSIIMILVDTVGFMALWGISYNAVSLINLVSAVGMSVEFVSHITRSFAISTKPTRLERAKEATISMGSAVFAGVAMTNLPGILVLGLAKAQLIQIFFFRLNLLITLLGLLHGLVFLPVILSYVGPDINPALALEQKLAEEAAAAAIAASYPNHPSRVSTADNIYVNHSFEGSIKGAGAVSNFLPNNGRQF

**Q.** Which IC50 [1] does the source give for `CC(C)(C)c1ccc(C(=O)N2CCC3(CC2)C(=O)N(CC(=O)N2CCCCC2)CN3c2ccccc2)cc1` here?
**A.** The IC50 was 110 µM.

**Q.** What about the IC50 [2] of the same compound?
**A.** The IC50 was 170 µM.

**Q.** And the IC50 [3]?
**A.** The IC50 was 77 µM.

**Q.** For `CS(=O)(=O)NCC#CN1C(=O)[C@H](CC[C@H](O)c2ccc(F)cc2)[C@H]1c1ccc(O[C@@H]2O[C@H](C(=O)O)[C@@H](O)[C@H](O)[C@H]2O)cc1`, which IC50 [1] is on record?
**A.** The IC50 was 0.016 µM.

**Q.** What about the IC50 [2] of the same compound?
**A.** Its IC50 is 0.008 µM.

**Q.** What about the IC50 [3] of the same compound?
**A.** Its IC50 is 0.02 µM.

**Q.** With `O=C([C@@H]1C[C@@H](c2ccccc2)CN1C(=O)c1ccccc1)N1CCC2(C=Cc3ccccc32)CC1` as the compound, how does the IC50 [1] read?
**A.** Its IC50 is 34 µM.

**Q.** And the IC50 [2]?
**A.** Its IC50 is over 500 µM.

**Q.** And the IC50 [3]?
**A.** The IC50 was 146 µM.

**Q.** Which results are given for `O=C(O)[C@H]1O[C@@H](Oc2ccc([C@@H]3[C@@H](CC[C@H](O)c4ccc(F)cc4)C(=O)N3c3ccc(F)cc3)cc2)[C@H](O)[C@@H](O)[C@@H]1O`?
**A.** IC50 [1]: 0.58 µM; IC50 [2]: 0.06 µM; IC50 [3]: 0.03 µM
